Experimental data taken from patent US20070155687A1, “Methods and compositions for altering cell function” (Alltech, Inc., priority 2005, published 2007).

Key:
Assay type in all cases: in vivo
Glutathione Peroxidase 1 = assay: Intestinal gene expression (microarray): Glutathione Peroxidase 1; conditions: mouse intestine; diet 1 ppm Se, 100 days; vs selenium deficient; all p < 0.01
From the text: (§1) Animal Care. Male C57BL/6J mice were housed singly and started on the experimental diets described below immediately after weaning (21 days of age). The mice were maintained in the Shared Aging Rodent Facility at the William S. Middleton Memorial Veterans Administration Medical Center (Madison, Wis.). Temperature and humidity were maintained at constant levels. Room light was controlled to provide 12-hr cycles of light and dark.
(§2) Experimental diets were created by Harlan Teklad (Madison, Wis.). Selenium content of the diets was determined by Covance Inc. (Madison, Wis.). Five (5) animals were included in each of the following treatment groups: a diet deficient in selenium (SD); a diet supplemented with selenomethionine (SM, obtained from Sigma, St. Louis, Mo.) such that the final selenium content of the diet was one (1) part per million; a diet supplemented with sodium selenite (SS, Sigma) such that the final concentration of selenium in this diet was one (1) part per million; or a diet supplemented with the yeast selenium SEL-PLEX (SP, Alltech, Lexington, Ky), such that the final concentration of selenium in this diet was one (1) part per million. SEL-PLEX. […]
(§3) Tissue sample preparation and microarray analysis. […] For intestinal expression studies, the intestine was flushed twice with saline solution and small intestine was measured and divided in three equal segments. […]

[1] = test system: Type 1 iodothyronine deiodinase; assay: Intestinal gene expression: Type 1 iodothyronine deiodinase; conditions: mouse intestine; diet 1 ppm Se, 100 days; vs selenium deficient
From the text: as §1, §2, §3

Selenoprotein W (SelW) = assay: Intestinal gene expression: Selenoprotein W; conditions: mouse intestine; diet 1 ppm Se, 100 days; vs selenium deficient
From the text: as §1, §2, §3

[2] = test system: SelR (also known as Selenoprotein X1); assay: Intestinal gene expression: SelR; conditions: mouse intestine; diet 1 ppm Se, 100 days; vs selenium deficient
From the text: as §1, §2, §3

[3] = test system: Growth arrest and DNA-damage-inducible 45 gamma. (Gadd45g); assay: Intestinal gene expression: Gadd45g; conditions: mouse intestine, diet 1 ppm Se, 100 days, vs selenium deficient, negative = down
From the text: as §1
Experimental diets were created by Harlan Teklad (Madison, Wis.). Selenium content of the diets was determined by Covance Inc. (Madison, Wis.). Five (5) animals were included in each of the following treatment groups: a diet deficient in selenium (SD); a diet supplemented with selenomethionine (SM, obtained from Sigma, St. Louis, Mo.) such that the final selenium content of the diet was one (1) part per million; a diet supplemented with sodium selenite (SS, Sigma) such that the final concentration of selenium in this diet was one (1) part per million; or a diet supplemented with the yeast selenium SEL-PLEX (SP, Alltech, Lexington, Ky), such that the final concentration of selenium in this diet was one (1) part per million. SEL-PLEX. Mice were provided with water and their respective diet ad libitum for 100 days. Diets were stored at the dark at 4° C. and fresh diet was added to feeder twice weekly.
Tissue sample preparation and microarray analysis. Mice were killed at 100 days of age by cervical dislocation. For intestinal expression studies, the intestine was flushed twice with saline solution and small intestine was measured and divided in three equal segments. A 3-cm region of the middle segment of the small intestine corresponding to the jejunum (˜300 mg of tissue) was cut and rinsed again with physiological saline to completely remove contents, flash frozen in liquid nitrogen and stored at −80° C. For brain (e.g., cerebral cortex) studies, the cerebral cortex was separated from the surrounding brain tissue and was flash frozen in liquid nitrogen and stored at −80° C. […]

[4] = test system: Complement component 1, q subcomponent, alpha polypeptide, C1qa; assay: Cerebral cortex gene expression: C1qa; conditions: mouse cerebral cortex; diet 1 ppm Se, 100 days; vs selenium deficient; * = significant, p<0.01
From the text: as §1, §2, §3

[5] = test system: Complement component 1, q subcomponent, beta polypeptide, C1qbp; assay: Cerebral cortex gene expression: C1q beta polypeptide; conditions: mouse cerebral cortex; diet 1 ppm Se, 100 days; vs selenium deficient; * = significant, p<0.01
From the text: as §1, §2, §3

[6] = test system: Complement component 1, q subcomponent, gamma polypeptide, C1qg; assay: Cerebral cortex gene expression: C1qg; conditions: mouse cerebral cortex; diet 1 ppm Se, 100 days; vs selenium deficient; * = significant, p<0.01
From the text: as §1, §2, §3

Cathepsin D = assay: Cerebral cortex gene expression: Cathepsin D; conditions: mouse cerebral cortex; diet 1 ppm Se, 100 days; * downregulation significant relative to Se-deficient mice
From the text: as §1, §2, §3

Cathepsin Z = assay: Cerebral cortex gene expression: Cathepsin Z; conditions: mouse cerebral cortex; diet 1 ppm Se, 100 days; * downregulation significant relative to Se-deficient mice
From the text: as §1, §2, §3

Cathepsin O = assay: Cerebral cortex gene expression: Cathepsin O; conditions: mouse cerebral cortex; diet 1 ppm Se, 100 days; * downregulation significant relative to Se-deficient mice
From the text: as §1, §2, §3

Nicastrin = assay: Cerebral cortex gene expression: Nicastrin; conditions: mouse cerebral cortex; diet 1 ppm Se, 100 days; * significant relative to Se-deficient animals, P < 0.01
From the text: as §1, §2, §3

Presenilin 1 = assay: Cerebral cortex gene expression: Presenilin 1; conditions: mouse cerebral cortex; diet 1 ppm Se, 100 days; * significant relative to Se-deficient animals, P < 0.01
From the text: as §1, §2, §3

[7] = test system: Amyloid beta (A4) precursor protein-binding, family B, member 1 (Apbb1 or Fe65); assay: Cerebral cortex gene expression: Apbb1/Fe65; conditions: mouse cerebral cortex; diet 1 ppm Se, 100 days; * significant relative to Se-deficient animals, P < 0.01
From the text: as §1, §2, §3

[8] = test system: Amyloid beta (A4) precursor-like protein (Aplp 1); assay: Cerebral cortex gene expression: Aplp 1; conditions: mouse cerebral cortex; diet 1 ppm Se, 100 days; * significant relative to Se-deficient animals, P < 0.01
From the text: as §1, §2, §3

[9] = test system: Amyloid beta (A4) precursor protein-binding, family A, member 1(Apba1); assay: Cerebral cortex gene expression: Apba1; conditions: mouse cerebral cortex; diet 1 ppm Se, 100 days; * significant relative to Se-deficient animals, P < 0.01
From the text: as §1, §2, §3

[10] = test system: Gadd45g1p (Growth arrest and DNA-damage inducible 45 gamma interacting protein); assay: Brain gene expression: Gadd45g1p; conditions: mouse brain; diet 1 ppm Se, 100 days; * significant relative to Se-deficient animals
From the text: as §1, §2, §3

Gst pi 1 (Gstp1) = assay: Brain gene expression: Gstp1; conditions: mouse brain; diet 1 ppm Se, 100 days; * significant relative to Se-deficient animals
From the text: as §1, §2, §3

Gst mu 7 (Gstm7) = assay: Brain gene expression: Gstm7; conditions: mouse brain; diet 1 ppm Se, 100 days; * significant relative to Se-deficient animals
From the text: as §1, §2, §3

Structure (SMILES) | fold change (FC) in Glutathione Peroxidase 1 gene expression (Glutathione Peroxidase 1) [fold] | Type 1 iodothyronine deiodinase expression level, fold increase [1] [fold] | Selenoprotein W (SelW) expression, upregulated (Selenoprotein W (SelW)) | SelR gene expression, upregulated [2] | FC C1qa expression [4] [fold] | FC Complement component 1, q subcomponent, beta polypeptide expression [5] [fold] | FC C1qg expression [6] [fold] | FC Cathepsin D expression (Cathepsin D) | FC Cathepsin Z expression (Cathepsin Z) | FC Cathepsin O expression (Cathepsin O) [fold] | FC Nicastrin expression (Nicastrin) | FC Presenilin 1 expression (Presenilin 1) [fold] | FC Apbb1 (Fe65) expression [7] | FC Aplp 1 expression [8] | FC Apba1 expression [9] [fold] | FC Gadd45g1p expression [10] [fold] | FC Gstp1 expression (Gst pi 1 (Gstp1)) [fold] | FC Gstm7 expression (Gst mu 7 (Gstm7)) | other results
C[Se]CC[C@H](N)C(=O)O [SeM, selenomethionine] | 4.9 | 2.0 | not significantly altered | not significantly affected | −1.11 | −1.15 | 1.0 | 1.02 fold | −1.13 fold | −1.16 | 1.04 fold | 1.02 | 1.02 fold | 1.02 fold | 1.08 | 1.02 | −1.04 | −1.05 fold | FC Gadd45g expression [3]: decreased expression; FC Gadd45g expression ([3]; listed as SM): −1.5 (p < 0.05) fold
O=[Se](O)O [Sod-sel, sodium selenite] | 4.1 | 2.8 | 5.1 fold | 1.3 fold | −1.18 | −1.35 | −1.07 | −1.24* fold | −1.30* fold | −1.18 | −1.67* fold | −1.11 | −1.32* fold | −1.55* fold | −1.41 | −1.12 | 1.02 | −1.25* fold | FC Gadd45g expression ([3]; listed as SS): −2.0 (p < 0.01) fold
